Results taken from patent EP4682145A1, “BENZOHETEROCYCLIC COMPOUND, AND PREPARATION METHOD THEREFOR AND USE THEREOF” (Cascade Pharmaceuticals, Inc., priority 2023, dated 2024).

Target: T1, human FFAR1 (GPR40) (Homo sapiens, UniProt O14842)
T1 construct: Flag; expressed in transfected cells; host or cells: HEK293T
Assay: NFAT-RE-based reporter gene activity assay (Dual-Glo luciferase) for GPR40 agonistic activity in co-transfected HEK293T cells
Type: cell-based
Conditions: 4-hour treatment; for Efficacy (%): class symbols
Description: The pcDNA3.0-flag-FFAR1 (GPR40) plasmid was constructed using conventional molecular cloning methods. The main steps were as follows: The full-length cDNA sequence of human FFAR1 (GPR40) (NM_005303.3) was inserted into the HindIII and XbaI restriction sites of the pcDNA3.0 vector via PCR technology, resulting in the pcDNA3.0-flag-FFAR1 (GPR40) plasmid; pGL4.30 [luc2P NFAT-RE] (# E8481) and pRL-TK (#E2241) plasmids were both purchased from Promega; the plasmids were transformed into DH5α E. coli using the CaCl2 method, further cultured and amplified, and then purified using a plasmid extraction kit (TIANGEN, # DP117) to obtain the corresponding plasmid DNA.
HEK293T cells were seeded in a 96-well plate at a density of 1 × 10^4/well one day prior to plasmid transfection. Cell transfection was performed according to the instructions of the transfection reagent FuGENE® HD (Promega, # E2311). The main steps were as follows: Taking one well as an example, plasmids pcDNA3.0-flag-FFAR1 (GPR40), pGL4.30 [luc2P NFAT-RE], and pRL-TK were added at ratios of 50 ng, 50 ng, and 5 ng, respectively, into 10 µL of Opti-MEM™ I medium (Gibco, #11058021) and mixed thoroughly; then, 0.2 µL of FuGENE® HD was added, mixed thoroughly, and allowed to stand at room temperature for 5 minutes; finally, this 10 µL mixture was added to the cell well containing 100 µL of culture medium. 24 hours after co-transfection, the compounds were serially diluted at half-logarithmic intervals with 1 µM as the highest concentration, resulting in 10 concentration gradients, which were added to the cell culture medium for a 4-hour treatment.
After 4 hours of compound treatment, the cells were assayed according to the instructions of the Dual-Glo® Luciferase Assay System (Promega, # E2940). The main steps were as follows: 50 µL of culture medium was aspirated from each well and discarded, followed by the addition of 50 µL of Dual-Glo® Luciferase Reagent, and the mixture was shaken at room temperature for 10 minutes. Then, 80 µL of the lysate reaction solution was transferred to a white opaque optiPlate-96 well plate, and the luminescence signal of Firefly luciferase (Firefly-Luc) was measured using an MD i3x multifunctional microplate reader. Subsequently, 40 µL of Dual-Glo® Stop & Glo® Reagent was added, and the mixture was shaken at room temperature for 10 minutes. Finally, the luminescence signal of Renilla luciferase (Renilla-Luc) was measured using the MD i3x multifunctional microplate reader. The ratio of Firefly-Luc/Renilla-Luc was used as the compound's agonistic activity toward GPR40, and normalization was performed using the ratio of the solvent DMSO group. A dose-response curve was fitted using a four-parameter model with GraphPad Prism 8.0 software to calculate the EC50 value.

T1 sequence (O14842 whole entry): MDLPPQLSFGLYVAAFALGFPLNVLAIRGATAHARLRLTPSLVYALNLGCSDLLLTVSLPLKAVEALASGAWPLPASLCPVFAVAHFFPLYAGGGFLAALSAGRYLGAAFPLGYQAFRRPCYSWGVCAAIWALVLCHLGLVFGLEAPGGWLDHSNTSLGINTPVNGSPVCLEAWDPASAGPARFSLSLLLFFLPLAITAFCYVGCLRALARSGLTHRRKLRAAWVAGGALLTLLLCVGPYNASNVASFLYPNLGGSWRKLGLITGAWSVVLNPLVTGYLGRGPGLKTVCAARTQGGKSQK

SMILES	EC50	Efficacy (%)
COc1cccc(N2CCC(c3oc4cc([C@@H](CC(=O)O)C5CC5)ccc4c3C(=O)Nc3cc(Cl)ccc3Cl)CC2)c1 [Compound 267]	≤ 10 nM	††† (Efficacy (%) > 150)
COc1ccc(F)c(N2CCC(c3oc4cc(C(CC(=O)O)C5CC5)ccc4c3CC(C)=O)CC2)c1 (centres unmarked) [Compound 395]	100 to 500 nM	† (100 ≥ Efficacy (%) > 50)
CCCOC(C)c1c(C2CCN(c3cccc(OC)c3)CC2)oc2cc([C@@H](CC(=O)O)C3CC3)ccc12 (some centres unmarked) [Compound 408]	100 to 500 nM	††† (Efficacy (%) > 150)
COc1cccc(N2CCC(c3oc4cc(C(CC(=O)O)C5CC5)ccc4c3C(=O)N3CC4(CCC4)C3)CC2)c1 (centres unmarked) [Compound 360]	> 500 nM	††† (Efficacy (%) > 150)
COc1cccc(N2CCC(c3oc4cc([C@@H](CC(=O)O)C5CC5)ccc4c3-c3ncc(C(C)C)s3)CC2)c1 [Compound 112]	10 to 100 nM	†† (150 ≥ Efficacy (%) > 100)
COc1cccc(N2CCC(c3oc4cc([C@@H](CC(=O)O)C5CC5)ccc4c3-c3cnn(C(C)(C)C)c3)CC2)c1F [Compound 87]	10 to 100 nM	†† (150 ≥ Efficacy (%) > 100)
COc1ccc(F)c(N2CCC(c3oc4cc([C@@H](CC(=O)O)C5CC5)ccc4c3/C=C/C(C)(C)C)CC2)c1 [Compound 367]	≤ 10 nM	†† (150 ≥ Efficacy (%) > 100)
COc1ccc(F)c(N2CCC(c3oc4cc(C(CC(=O)O)C5CC5)ccc4c3C(=O)Nc3ccc(F)cc3)CC2)c1 (centres unmarked) [Compound 317]	100 to 500 nM	† (100 ≥ Efficacy (%) > 50)
COc1ccc(F)c(N2CCC(c3oc4cc([C@@H](CC(=O)O)C5CC5)ccc4c3CC=C(C)C)CC2)c1 [Compound 372]	100 to 500 nM	†† (150 ≥ Efficacy (%) > 100)
COc1cccc(N2CCC(c3oc4cc([C@@H](CC(=O)O)C5CC5)ccc4c3-c3cnc(C(C)C)s3)CC2)c1 [Compound 102]	10 to 100 nM	†† (150 ≥ Efficacy (%) > 100)
CCc1ccc(-c2c(C3CCN(c4cc(OC)ccc4F)CC3)oc3cc(C(CC(=O)O)C4CC4)ccc23)cc1 (centres unmarked) [Compound 162]	100 to 500 nM	††† (Efficacy (%) > 150)
COc1cccc(N2CCC(c3oc4cc([C@@H](CC(=O)O)C5CC5)ccc4c3-c3nc4ccccc4s3)CC2)c1 [Compound 152]	100 to 500 nM	†† (150 ≥ Efficacy (%) > 100)
COc1cccc(N2CCC(c3oc4cc([C@@H](CC(=O)O)C5CC5)ccc4c3C(=O)Nc3cc(OC)ccc3Cl)CC2)c1 [Compound 268]	≤ 10 nM	†† (150 ≥ Efficacy (%) > 100)
COc1cccc(N2CCC(c3oc4cc(C(CC(=O)O)C5CC5)ccc4c3C(=O)Nc3ncc(C(C)(C)C)s3)CC2)c1 (centres unmarked) [Compound 299]	100 to 500 nM	†† (150 ≥ Efficacy (%) > 100)
COc1cccc(N2CCC(c3oc4cc(C(CC(=O)O)C5CC5)ccc4c3-c3cc(C(C)(C)C)no3)CC2)c1 (centres unmarked) [Compound 115]	≤ 10 nM	†† (150 ≥ Efficacy (%) > 100)
COc1cccc(N2CCC(c3oc4cc([C@@H](CC(=O)O)C5CC5)ccc4c3C(=O)Nc3cc(C(F)(F)F)ccc3Cl)CC2)c1 [Compound 275]	10 to 100 nM	††† (Efficacy (%) > 150)
COc1cccc(N2CCC(c3oc4cc([C@@H](CC(=O)O)C5CC5)ccc4c3C(=O)Nc3ccccc3F)CC2)c1 [Compound 234]	≤ 10 nM	†† (150 ≥ Efficacy (%) > 100)
COc1ccc(F)c(N2CCC(c3oc4cc(C(CC(=O)O)C5CC5)ccc4c3C3=CCCCC3)CC2)c1 (centres unmarked) [Compound 379]	100 to 500 nM	†† (150 ≥ Efficacy (%) > 100)
COc1cccc(N2CCC(c3oc4cc([C@@H](CC(=O)O)C5CC5)ccc4c3-c3cnc(C(C)(C)C)s3)CC2)c1 [Compound 103]	10 to 100 nM	†† (150 ≥ Efficacy (%) > 100)
COc1cccc(N2CCC(c3oc4cc(C(CC(=O)O)C5CC5)ccc4c3-c3nnc(C(C)(C)C)s3)CC2)c1 (centres unmarked) [Compound 118]	10 to 100 nM	†† (150 ≥ Efficacy (%) > 100)

SMILES	EC50	Efficacy (%)
COc1cccc(N2CCC(c3oc4cc([C@@H](CC(=O)O)C5CC5)ccc4c3C(=O)N(C)c3cc([N+](=O)[O-])ccc3Cl)CC2)c1 [Compound 274]	100 to 500 nM	†† (150 ≥ Efficacy (%) > 100)
COc1cccc(N2CCC(c3oc4cc([C@@H](CC(=O)O)C5CC5)ccc4c3C(O)c3ccccc3)CC2)c1 (some centres unmarked) [Compound 424]	> 500 nM	†† (150 ≥ Efficacy (%) > 100)
COc1cccc(N2CCC(c3oc4cc([C@@H](CC(=O)O)C5CC5)ccc4c3C(C)OCC[C@@H](C)CCC=C(C)C)CC2)c1 (some centres unmarked) [Compound 415]	> 500 nM	††† (Efficacy (%) > 150)
COc1ccc(F)c(N2CCC(c3oc4cc(C(CC(=O)O)C5CC5)ccc4c3-c3cccc(C4CC4)c3)CC2)c1 (centres unmarked) [Compound 164]	100 to 500 nM	†† (150 ≥ Efficacy (%) > 100)
CCc1cccc(N2CCC(c3oc4cc(C(CC(=O)O)C5CC5)ccc4c3-c3ccc(C(C)(C)C)cc3)CC2)c1 (centres unmarked) [Compound 6]	> 500 nM	†† (150 ≥ Efficacy (%) > 100)
COc1ccc(F)c(N2CCC(c3oc4cc([C@H](CC(=O)O)C5CC5)ccc4c3-c3cccc(C(C)(C)C)c3)CC2)c1 [Compound 167]	100 to 500 nM	†† (150 ≥ Efficacy (%) > 100)
COc1ccc(F)c(N2CCC(c3oc4cc(C(CC(=O)O)C5CC5)ccc4c3-c3cccc(C)c3)CC2)c1 (centres unmarked) [Compound 157]	100 to 500 nM	††† (Efficacy (%) > 150)
CCCCCCNC(=O)c1ccc(OC)cc1N1CCC(c2oc3cc(C(CC(=O)O)C4CC4)ccc3c2-c2cnn(C(C)(C)C)c2)CC1 (centres unmarked) [Compound 95]	100 to 500 nM	†† (150 ≥ Efficacy (%) > 100)
COc1ccc(F)c(N2CCC(c3oc4cc(C(CC(=O)O)C5CC5)ccc4c3C(=O)Nc3cccc(C(C)(C)C)c3)CC2)c1 (centres unmarked) [Compound 316]	100 to 500 nM	†† (150 ≥ Efficacy (%) > 100)
COc1cccc(N2CCC(c3oc4cc([C@@H](CC(=O)O)C5CC5)ccc4c3C(=O)Nc3cc(C(F)(F)F)ccc3F)CC2)c1 [Compound 261]	≤ 10 nM	††† (Efficacy (%) > 150)
COc1cccc(N2CCC(c3oc4cc(C(CC(=O)O)C5CC5)ccc4c3C(=O)Nc3cccc(F)c3F)CC2)c1 (centres unmarked) [Compound 254]	100 to 500 nM	††† (Efficacy (%) > 150)
CC(C)(C)c1cccc(-c2c(C3CCN(c4ccccc4OC(F)(F)F)CC3)oc3cc(C(CC(=O)O)C4CC4)ccc23)c1 (centres unmarked) [Compound 23]	100 to 500 nM	†† (150 ≥ Efficacy (%) > 100)
COc1ccccc1C(C)N1CCC(c2oc3cc(C(CC(=O)O)C4CC4)ccc3c2C(=O)Nc2ccccc2F)CC1 (centres unmarked) [Compound 328]	> 500 nM	†† (150 ≥ Efficacy (%) > 100)
COc1cccc(N2CCC(c3oc4cc(OC(C)C(=O)O)ccc4c3-c3cnn(C(C)(C)C)c3)CC2)c1 (centres unmarked) [Compound 65]	100 to 500 nM	†† (150 ≥ Efficacy (%) > 100)
COc1cccc(N2CCC(c3oc4cc([C@@H](CC(=O)O)C5CC5)ccc4c3CC=C(C)C)CC2)c1 [Compound 374]	10 to 100 nM	†† (150 ≥ Efficacy (%) > 100)
COc1cccc(N2CCC(c3oc4cc([C@@H](CC(=O)O)C5CC5)ccc4c3C(=O)Nc3cccc(C)c3)CC2)c1F [Compound 325]	100 to 500 nM	†† (150 ≥ Efficacy (%) > 100)
COc1cccc(N2CCC(c3oc4cc([C@@H](CC(=O)O)C5CC5)ccc4c3-c3cncc(C)c3)CC2)c1 [Compound 144]	> 500 nM	†† (150 ≥ Efficacy (%) > 100)
CC(C)(C)n1cc(-c2c(C3CCN(c4cccc(F)c4)CC3)oc3cc(C(CC(=O)O)C4CC4)ccc23)cn1 (centres unmarked) [Compound 41]	100 to 500 nM	†† (150 ≥ Efficacy (%) > 100)
COc1cccc(N2CCC(c3oc4cc([C@@H](CC(=O)O)C5CC5)ccc4c3C(OCC(C)C)c3ccc(C)cc3)CC2)c1 (some centres unmarked) [Compound 427]	100 to 500 nM	††† (Efficacy (%) > 150)
CSc1cccc(N2CCC(c3oc4cc(C(CC(=O)O)C5CC5)ccc4c3-c3ccc(C(C)(C)C)cc3)CC2)c1 (centres unmarked) [Compound 26]	100 to 500 nM	†† (150 ≥ Efficacy (%) > 100)
